# Experimental data as given in ChEMBL document CHEMBL1201862, “PubChem BioAssay data set” (2004).
# Active and inactive are the calls of the source.
# Legend:
# [1] = target: T1, Replicative DNA helicase DnaB (Mycobacterium tuberculosis, UniProt P9WMR3); assay: DnaB intein splicing inhibitors, dose response, biochemical, cell-free fluorescence (AID 449749); assay type: functional
# T1 sequence (P9WMR3 whole entry): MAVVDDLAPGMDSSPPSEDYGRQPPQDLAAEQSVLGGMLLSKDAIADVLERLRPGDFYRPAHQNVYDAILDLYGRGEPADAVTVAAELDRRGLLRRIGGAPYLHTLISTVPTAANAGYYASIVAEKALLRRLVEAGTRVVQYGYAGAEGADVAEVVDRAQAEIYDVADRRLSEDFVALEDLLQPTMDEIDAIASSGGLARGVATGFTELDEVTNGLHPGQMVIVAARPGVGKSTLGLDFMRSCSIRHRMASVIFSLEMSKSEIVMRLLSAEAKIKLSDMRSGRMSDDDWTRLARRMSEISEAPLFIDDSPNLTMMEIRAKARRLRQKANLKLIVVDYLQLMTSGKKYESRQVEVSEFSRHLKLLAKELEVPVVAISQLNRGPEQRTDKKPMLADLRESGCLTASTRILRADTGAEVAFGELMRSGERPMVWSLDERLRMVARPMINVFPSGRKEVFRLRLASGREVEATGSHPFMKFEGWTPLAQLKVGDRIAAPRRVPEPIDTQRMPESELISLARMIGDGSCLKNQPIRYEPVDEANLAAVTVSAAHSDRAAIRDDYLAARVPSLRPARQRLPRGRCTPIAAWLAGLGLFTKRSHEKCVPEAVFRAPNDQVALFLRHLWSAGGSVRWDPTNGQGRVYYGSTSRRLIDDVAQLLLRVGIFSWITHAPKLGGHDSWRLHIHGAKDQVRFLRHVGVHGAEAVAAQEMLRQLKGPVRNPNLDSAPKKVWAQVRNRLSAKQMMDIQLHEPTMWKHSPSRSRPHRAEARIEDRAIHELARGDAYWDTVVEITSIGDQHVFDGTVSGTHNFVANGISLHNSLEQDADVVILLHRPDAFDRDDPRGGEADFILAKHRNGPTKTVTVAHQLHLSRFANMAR
# [2] = target: T2, Protein RecA (Mycobacterium tuberculosis, UniProt P9WHJ3); assay: Fluorescence Cell-Free Homogeneous Dose Retest to Identify Inhibitors of RecA-Intein Splicing Activity. [Related pubchem assays (depositor defined):AID2097, AID2223, AID489010, AID492950]; assay type: functional
# T2 sequence (P9WHJ3 whole entry): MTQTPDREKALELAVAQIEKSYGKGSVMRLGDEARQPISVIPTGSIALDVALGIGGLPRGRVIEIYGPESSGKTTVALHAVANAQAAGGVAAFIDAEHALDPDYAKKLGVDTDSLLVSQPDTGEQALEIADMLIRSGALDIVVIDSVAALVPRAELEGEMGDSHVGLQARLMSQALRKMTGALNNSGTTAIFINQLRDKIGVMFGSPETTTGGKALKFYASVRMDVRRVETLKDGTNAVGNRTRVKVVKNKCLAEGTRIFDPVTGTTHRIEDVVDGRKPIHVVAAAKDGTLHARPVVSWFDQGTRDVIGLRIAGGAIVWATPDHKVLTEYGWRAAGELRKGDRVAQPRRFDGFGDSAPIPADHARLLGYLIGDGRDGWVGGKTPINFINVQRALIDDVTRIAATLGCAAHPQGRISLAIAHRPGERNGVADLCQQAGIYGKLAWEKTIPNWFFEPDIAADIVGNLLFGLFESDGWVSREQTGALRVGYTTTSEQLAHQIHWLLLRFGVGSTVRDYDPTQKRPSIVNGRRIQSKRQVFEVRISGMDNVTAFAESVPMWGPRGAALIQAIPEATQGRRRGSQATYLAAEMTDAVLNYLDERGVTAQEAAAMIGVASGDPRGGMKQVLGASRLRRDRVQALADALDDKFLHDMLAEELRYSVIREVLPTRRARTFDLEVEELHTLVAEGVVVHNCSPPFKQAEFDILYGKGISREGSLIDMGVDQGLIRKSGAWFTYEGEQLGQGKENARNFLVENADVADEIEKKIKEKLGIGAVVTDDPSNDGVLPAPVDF
# [3] = tested on: INS1; assay: beta cell apoptosis inhibitors, cytokine rescue, dose response, luminescence, retest (AID 449756); assay type: functional, cell-based; settings: Rattus norvegicus, INS1;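 further: cell death triggered by IL-1 beta plus TNF-alpha plus IFN-gamma mixture; protective hits raise ATP signal compared with cytokine alone wells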
# [4] = Shn3 3'UTR reporter inhibitors, dose response, cell-based, Clone20 osteoblasts, firefly luciferase, cherry-picked (AID 624132); assay type: functional;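 further: firefly luciferase luminescence from reporter carrying the Shn3 3'UTR in osteoblasts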
# [5] = HepG2 cell cytotoxicity, dose response, cytotoxicity control for Shn3 inhibitor project, CellTiter-Glo, cherry-picked (AID 624134); assay type: functional, cell-based
# [6] = control 3'UTR Renilla luciferase suppression, dose response, counter-screen for Shn3 inhibitor project, cell-based, Clone20-Shn3RL, cherry-picked (AID 624133); assay type: functional
# [7] = Fluorescence-based cell-based high throughput dose response assay for inhibitors of the interaction of nucleotide-binding oligomerization domain containing 2 (NOD2) and the receptor-interacting serine-threonine kinase 2 (RIPK2).; assay type: functional; settings: Homo sapiens
# [8] = target: T3, Corticotropin-releasing factor receptor 2/Corticotropin-releasing factor-binding protein (Homo sapiens, UniProt P24387+Q13324); assay: Dose Response confirmation of uHTS hits for small molecule antagonists of the CRF-binding protein and CRF-R2 receptor complex.; assay type: functional; settings: read-out: IC50_Mean
# T3 sequence (Q13324 whole entry): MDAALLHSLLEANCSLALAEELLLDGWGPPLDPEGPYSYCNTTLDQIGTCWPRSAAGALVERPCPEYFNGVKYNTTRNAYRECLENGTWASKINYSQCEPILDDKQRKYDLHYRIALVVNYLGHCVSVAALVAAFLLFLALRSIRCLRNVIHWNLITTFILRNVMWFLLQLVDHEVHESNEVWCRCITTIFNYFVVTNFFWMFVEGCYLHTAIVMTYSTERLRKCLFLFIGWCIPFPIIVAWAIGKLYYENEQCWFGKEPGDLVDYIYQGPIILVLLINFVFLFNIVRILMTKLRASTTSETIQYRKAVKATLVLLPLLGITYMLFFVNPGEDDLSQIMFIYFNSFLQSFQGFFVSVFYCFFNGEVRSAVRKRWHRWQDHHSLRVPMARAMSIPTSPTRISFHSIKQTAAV
# T3 sequence (P24387 whole entry): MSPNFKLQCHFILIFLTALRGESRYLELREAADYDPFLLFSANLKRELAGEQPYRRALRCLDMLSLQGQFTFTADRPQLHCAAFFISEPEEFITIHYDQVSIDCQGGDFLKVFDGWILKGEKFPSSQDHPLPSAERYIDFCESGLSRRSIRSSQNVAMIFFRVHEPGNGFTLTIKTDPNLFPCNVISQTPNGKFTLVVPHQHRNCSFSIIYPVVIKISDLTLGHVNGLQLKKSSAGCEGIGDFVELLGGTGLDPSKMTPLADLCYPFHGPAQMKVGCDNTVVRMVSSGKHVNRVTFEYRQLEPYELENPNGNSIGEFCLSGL
# [9] = target: T3, Corticotropin-releasing factor receptor 2/Corticotropin-releasing factor-binding protein; assay: activators of CRF receptor 2 with binding protein – uHTS hits, confirmation (AID 602473); assay type: functional; settings: read-out: EC50_Mean
# [10] = CRF-BP/CRF-R2 complex antagonists, dose response, cell-based, uHTS hits, 384-well (AID 651639); assay type: functional, Homo sapiens; settings: read-out: IC50_Mean
# [11] = target: T4, Short transient receptor potential channel 4 (Mus musculus, UniProt Q9QUQ5); assay: mouse TRPC4 channel activators, dose response, cell-based, HEK293 TRPC4/mu-opioid, Fluo-4 calcium (AID 434937); assay type: functional
# T4 sequence (Q9QUQ5 whole entry): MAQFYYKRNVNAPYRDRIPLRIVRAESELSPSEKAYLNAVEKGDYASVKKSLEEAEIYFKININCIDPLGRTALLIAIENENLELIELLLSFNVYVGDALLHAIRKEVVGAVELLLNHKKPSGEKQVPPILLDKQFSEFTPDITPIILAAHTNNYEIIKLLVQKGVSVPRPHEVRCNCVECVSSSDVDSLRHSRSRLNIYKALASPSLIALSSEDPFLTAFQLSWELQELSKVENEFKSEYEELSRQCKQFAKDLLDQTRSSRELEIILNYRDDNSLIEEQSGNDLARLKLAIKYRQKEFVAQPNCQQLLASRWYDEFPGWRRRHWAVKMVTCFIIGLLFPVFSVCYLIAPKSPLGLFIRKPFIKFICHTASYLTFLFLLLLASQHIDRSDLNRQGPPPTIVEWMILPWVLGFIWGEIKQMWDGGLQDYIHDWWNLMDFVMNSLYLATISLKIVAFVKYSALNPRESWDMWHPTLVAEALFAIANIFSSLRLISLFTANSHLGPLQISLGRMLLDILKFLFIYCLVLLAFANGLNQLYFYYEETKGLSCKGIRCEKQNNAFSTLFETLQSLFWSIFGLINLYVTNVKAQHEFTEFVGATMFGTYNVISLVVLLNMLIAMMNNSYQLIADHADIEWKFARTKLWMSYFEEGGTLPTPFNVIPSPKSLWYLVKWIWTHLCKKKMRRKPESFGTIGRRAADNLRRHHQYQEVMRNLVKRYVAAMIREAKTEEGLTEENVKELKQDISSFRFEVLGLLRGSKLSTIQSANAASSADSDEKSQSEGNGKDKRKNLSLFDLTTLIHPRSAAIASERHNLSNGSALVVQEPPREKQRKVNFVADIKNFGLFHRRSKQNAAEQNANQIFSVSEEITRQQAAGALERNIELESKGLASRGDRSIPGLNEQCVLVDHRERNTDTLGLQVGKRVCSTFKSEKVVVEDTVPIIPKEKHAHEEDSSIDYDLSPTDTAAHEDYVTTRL
# [12] = target: Protein Wnt-3a (Mus musculus, UniProt P27467); assay: Wnt3a-driven reporter signaling inhibition, dose response, selectivity assay for Gli-SUFU antagonist project, Wnt-LIGHT cells, luminescence (AID 651570); assay type: functional; settings: read-out: IC50_Mean;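 further: Wnt-LIGHT reporter cells stimulated with conditioned medium from Wnt3a-producing cells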
# [13] = tested on: T-cell; assay: inhibitors of CD8+ T cell–vesicle binding, dose response, mouse 2C CD8+ T cells, flow cytometry (AID 485284); assay type: functional
# [14] = target: Photoreceptor-specific nuclear receptor (Homo sapiens, UniProt Q9Y5X4); assay type: functional, cell-based;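 further: CHO-S cells with Gal4-NCOR and VP16-NR2E3 two-hybrid luciferase reporter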
# [15] = target: T5, Heat shock factor protein 1 (Mus musculus, UniProt P38532); assay: HSF1 potentiators in luciferase reporter cells, confirmation, cell-based, NIH3T3, luminescence, dose retest (AID 435004); assay type: functional;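 further: stress induced by proteasome inhibitor MG132 added 30 min after compound; luciferase reporter driven by HSF1 response element in NIH3T3 cells; actives raise luminescence as potentiators of the MG132 stress response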
# T5 sequence (P38532 whole entry): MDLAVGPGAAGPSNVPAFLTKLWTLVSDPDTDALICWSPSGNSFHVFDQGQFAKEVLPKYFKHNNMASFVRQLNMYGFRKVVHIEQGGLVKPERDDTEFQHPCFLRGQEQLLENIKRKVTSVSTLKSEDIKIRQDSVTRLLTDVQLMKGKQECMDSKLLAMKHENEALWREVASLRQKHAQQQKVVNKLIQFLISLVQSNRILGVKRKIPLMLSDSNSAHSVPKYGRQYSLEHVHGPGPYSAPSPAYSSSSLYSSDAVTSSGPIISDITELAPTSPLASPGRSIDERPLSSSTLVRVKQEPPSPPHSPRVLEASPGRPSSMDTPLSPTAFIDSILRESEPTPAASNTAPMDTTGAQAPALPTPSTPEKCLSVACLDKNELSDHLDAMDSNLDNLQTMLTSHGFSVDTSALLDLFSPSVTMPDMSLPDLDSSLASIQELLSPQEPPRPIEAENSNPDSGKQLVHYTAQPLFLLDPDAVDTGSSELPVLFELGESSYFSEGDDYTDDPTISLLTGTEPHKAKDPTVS
# [16] = target: Cytochrome P450 2D6 (Homo sapiens, UniProt P10635);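 further: CYP2D6 member of a cytochrome P450 panel assay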
# [17] = target: Hepatocyte nuclear factor 4-alpha (Homo sapiens, UniProt P41235); assay type: functional, cell-based;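 further: biochemical luminescence-based dose-response counterscreen measuring inhibition of HNF4 dimerization, run alongside a screen for blockers of ABHD5–perilipin-5 interaction; split luciferase complementation of HNF4 fusion proteins in cell lysate measuring dimerization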
# [18] = cells; assay type: functional, cell-based
# [19] = cells; assay type: functional, cell-based; remark: listed apart in the source
# Sequence of Protein Wnt-3a (P27467 whole entry): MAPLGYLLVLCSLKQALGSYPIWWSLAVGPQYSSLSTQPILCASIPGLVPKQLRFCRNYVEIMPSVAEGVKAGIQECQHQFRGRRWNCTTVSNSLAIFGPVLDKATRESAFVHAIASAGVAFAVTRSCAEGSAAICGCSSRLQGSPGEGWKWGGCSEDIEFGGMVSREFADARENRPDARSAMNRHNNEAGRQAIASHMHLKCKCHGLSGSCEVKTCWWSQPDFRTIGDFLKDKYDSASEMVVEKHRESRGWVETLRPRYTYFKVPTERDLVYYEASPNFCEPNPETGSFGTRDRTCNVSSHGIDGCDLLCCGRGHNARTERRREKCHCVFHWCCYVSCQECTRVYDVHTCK
# Sequence of Hepatocyte nuclear factor 4-alpha (P41235 whole entry, the tested form may be a part): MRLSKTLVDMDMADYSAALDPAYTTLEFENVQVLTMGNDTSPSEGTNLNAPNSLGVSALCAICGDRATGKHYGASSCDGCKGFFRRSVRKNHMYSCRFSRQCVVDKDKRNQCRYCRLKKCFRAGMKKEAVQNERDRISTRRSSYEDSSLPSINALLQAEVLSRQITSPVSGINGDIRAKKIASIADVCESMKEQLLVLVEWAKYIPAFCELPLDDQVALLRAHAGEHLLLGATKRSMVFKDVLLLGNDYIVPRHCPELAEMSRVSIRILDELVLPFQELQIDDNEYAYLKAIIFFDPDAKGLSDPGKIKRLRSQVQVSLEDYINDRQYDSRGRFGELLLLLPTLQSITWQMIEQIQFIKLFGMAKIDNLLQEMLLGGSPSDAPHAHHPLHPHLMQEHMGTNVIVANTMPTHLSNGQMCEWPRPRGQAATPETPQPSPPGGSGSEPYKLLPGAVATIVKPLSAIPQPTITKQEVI
# Sequence of Photoreceptor-specific nuclear receptor (Q9Y5X4 whole entry, the tested form may be a part): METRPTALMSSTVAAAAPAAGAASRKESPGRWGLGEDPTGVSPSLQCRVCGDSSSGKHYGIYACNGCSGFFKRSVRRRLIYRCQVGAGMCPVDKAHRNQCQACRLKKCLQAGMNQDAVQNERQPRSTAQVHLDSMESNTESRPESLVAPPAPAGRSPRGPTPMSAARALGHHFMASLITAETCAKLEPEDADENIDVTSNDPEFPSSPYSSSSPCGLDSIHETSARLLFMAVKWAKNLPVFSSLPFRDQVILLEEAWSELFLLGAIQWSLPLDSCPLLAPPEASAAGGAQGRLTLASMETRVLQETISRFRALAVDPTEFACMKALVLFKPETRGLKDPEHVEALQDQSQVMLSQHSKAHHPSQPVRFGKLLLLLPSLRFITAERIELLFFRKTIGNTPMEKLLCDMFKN
# Sequence of Cytochrome P450 2D6 (P10635 whole entry, the tested form may be a part): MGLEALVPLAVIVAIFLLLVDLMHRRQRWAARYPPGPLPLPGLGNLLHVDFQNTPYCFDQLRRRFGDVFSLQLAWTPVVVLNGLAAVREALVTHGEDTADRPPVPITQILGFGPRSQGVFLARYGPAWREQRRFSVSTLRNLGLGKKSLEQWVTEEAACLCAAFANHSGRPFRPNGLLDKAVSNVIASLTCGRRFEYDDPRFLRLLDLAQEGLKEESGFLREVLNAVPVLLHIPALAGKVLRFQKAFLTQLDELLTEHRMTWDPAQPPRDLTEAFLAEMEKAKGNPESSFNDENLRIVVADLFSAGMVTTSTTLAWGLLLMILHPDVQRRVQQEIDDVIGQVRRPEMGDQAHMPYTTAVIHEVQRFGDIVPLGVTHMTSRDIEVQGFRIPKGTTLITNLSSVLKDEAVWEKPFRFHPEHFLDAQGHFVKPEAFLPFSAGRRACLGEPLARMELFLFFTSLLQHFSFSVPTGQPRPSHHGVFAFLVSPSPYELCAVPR
structure (smiles),measurement,setting,value
O=C(NCc1cccnc1)/C(=C\c1ccc(-c2ccc(Br)cc2)o1)S(=O)(=O)c1ccccc1,AC50,[1],> 380 µM (inconclusive)
same,EC50,[2],20.2 µM (active)
same,AC50,[3],2.9 µM (active)
same,AC50,[4],6.33 µM (active)
same,AC50,[5],11.3 µM (active)
same,AC50,[6],13 µM (active)
same,IC50,[7],5.51 µM (active)
CCOC(=O)c1c(-c2ccccc2)oc2ccc(OC(C)C(=O)O)cc12 (stereo not drawn),IC50,[8],< 0.368 µM (active)
same,EC50,[9],> 53 µM (inactive)
same,IC50,[10],0.34 µM (active)
Cc1sc2ncnc(NCC(C)(C)N3CCOCC3)c2c1C,EC50,[11],0.841 µM (active)
same,AC50,[3],2.96 µM (active)
same,AC50,[4],1.36 µM (active)
same,AC50,[5],4.09 µM (active)
same,AC50,[6],3 µM (active)
same,IC50,[12],0.942 µM (active)
Cc1ccc(OCCOC(=O)c2cc(S(=O)(=O)N3CCCCC3)ccc2N2CCOCC2)cc1,EC50,[13],11.8 µM (active)
same,IC50,[14],12.6 µM (inactive)
same,IC50,[12],4.83 µM (active)
COc1cccc(CSc2nnc(C(F)(F)F)n2Cc2ccc(F)cc2)c1,EC50,[15],> 260 µM (inactive)
same,IC50,[8],7.2 µM (active)
same,EC50,[9],> 53 µM (inactive)
same,IC50,[10],> 20 µM (inactive)
same,AC50,[16],10 µM (inconclusive)
O=C(NC1CCCCC1)C(c1cc2ccccc2o1)n1c(=O)c(-c2ccco2)nc2ccccc21 (stereo not drawn),IC50,[17],2.19 µM (active)
COc1ccccc1/C=C/C(=O)c1ccccc1,EC50,[18],> 350 µM (not active)
same,EC50,[19],6.12 µM (active)
same,IC50,[17],7.12 µM (active)
